Experimental data: patent publication US10202361B2, “Pyridazinones as herbicides” (E I DU PONT DE NEMOURS AND COMPANY, priority 2014, dated 2019)

Columns and labels:
Format in all cases: in vivo
[1] = system: rice (Oryza sativa); assay: Test B flooded paddy test; conditions: Flood, scale of 0 to 100, 0 is no effect, 100 is complete control, 13 to 15 d
Method: (§1) Plant species in the flooded paddy test selected from rice (Oryza sativa), small-flower sedge, umbrella (small-flower umbrella sedge, Cyperus difformis), ducksalad (Heteranthera limosa), and barnyardgrass (Echinochloa crus-galli) were grown to the 2-leaf stage for testing. At time of treatment, test pots were flooded to 3 cm above the soil surface, treated by application of test compounds directly to the paddy water, and then maintained at that water depth for the duration of the test. Treated plants and controls were maintained in a greenhouse for 13 to 15 d, after which time all species were compared to controls and visually evaluated. Plant response ratings, summarized in Table B, are based on a scale of 0 to 100 where 0 is no effect and 100 is complete control. A dash (-) response means no test result.

[2] = system: sedge, umbrella (small-flower umbrella sedge, Cyperus difformis); assay: Test B flooded paddy test; conditions: Flood, scale of 0 to 100, 0 is no effect, 100 is complete control, 13 to 15 d
Method: as §1

[3] = system: ducksalad (Heteranthera limosa); assay: Test B flooded paddy test; conditions: Flood, scale of 0 to 100, 0 is no effect, 100 is complete control, 13 to 15 d
Method: as §1

[4] = system: barnyardgrass (Echinochloa crus-galli); assay: Test B flooded paddy test; conditions: Flood, scale of 0 to 100, 0 is no effect, 100 is complete control, 13 to 15 d
Method: as §1

[5] = system: corn (Zea mays); assay: Test A pre-/postemergence greenhouse herbicide test; conditions: 0 to 100 scale (0 no effect, 100 complete control), approx. 10 d
From the text: (§2) Seeds of plant species selected from barnyardgrass (Echinochloa crus-galli), crabgrass, Large (large crabgrass, Digitaria sanguinalis), foxtail, giant (giant foxtail, Setaria faberii), morningglory (Ipomoea spp.), pigweed (Amaranthus retroflexus), velvetleaf (Abutilon theophrasti), wheat (Triticum aestivum), and corn (Zea mays) were planted into a blend of loam soil and sand and treated preemergence with a directed soil spray using test chemicals formulated in a non-phytotoxic solvent mixture which included a surfactant. At the same time these species were also treated with postemergence applications of test chemicals formulated in the same manner.
(§3) Plants ranged in height from 2 to 10 cm and were in the one- to two-leaf stage for the postemergence treatment. Treated plants and untreated controls were maintained in a greenhouse for approximately 10 d, after which time all treated plants were compared to untreated controls and visually evaluated for injury. Plant response ratings, summarized in Table A, are based on a 0 to 100 scale where 0 is no effect and 100 is complete control. A dash (-) response means no test result.

[6] = system: crabgrass, Large (large crabgrass, Digitaria sanguinalis); assay: as above; conditions: 0 to 100 scale (0 no effect, 100 complete control), approx. 10 d
From the text: as §2, §3

[7] = system: pigweed (Amaranthus retroflexus); assay: as above; conditions: 0 to 100 scale (0 no effect, 100 complete control), approx. 10 d
From the text: as §2, §3

[8] = system: morningglory (Ipomoea spp.); assay: as above; conditions: 0 to 100 scale (0 no effect, 100 complete control), approx. 10 d
From the text: as §2, §3

[9] = system: wheat (Triticum aestivum); assay: as above; conditions: 0 to 100 scale (0 no effect, 100 complete control), approx. 10 d
From the text: as §2, §3

[10] = system: foxtail, giant (giant foxtail, Setaria faberii); assay: as above; conditions: 0 to 100 scale (0 no effect, 100 complete control), approx. 10 d
From the text: as §2, §3

[11] = system: velvetleaf (Abutilon theophrasti); assay: as above; conditions: 0 to 100 scale (0 no effect, 100 complete control), approx. 10 d
From the text: as §2, §3

[12] = system: barnyardgrass (Echinochloa crus-galli); assay: as above; conditions: 0 to 100 scale (0 no effect, 100 complete control), approx. 10 d
From the text: as §2, §3

Compound	Plant response rating, Corn ([5]; Postemergence, 125 g ai/ha)	Plant response rating, Corn ([5]; Postemergence, 500 g ai/ha)	Plant response rating, Corn ([5]; Preemergence, 125 g ai/ha)	Plant response rating, Corn ([5]; Preemergence, 500 g ai/ha)	Plant response rating, Crabgrass, Large ([6]; Postemergence, 125 g ai/ha)	Plant response rating, Crabgrass, Large ([6]; Postemergence, 500 g ai/ha)	Plant response rating, Crabgrass, Large ([6]; Preemergence, 125 g ai/ha)	Plant response rating, Crabgrass, Large ([6]; Preemergence, 500 g ai/ha)	Plant response rating, Pigweed ([7]; Postemergence, 125 g ai/ha)	Plant response rating, Pigweed ([7]; Postemergence, 500 g ai/ha)	Plant response rating, Pigweed ([7]; Preemergence, 125 g ai/ha)	Plant response rating, Pigweed ([7]; Preemergence, 500 g ai/ha)	Plant response rating, Morningglory ([8]; Postemergence, 125 g ai/ha)	Plant response rating, Morningglory ([8]; Postemergence, 500 g ai/ha)	Plant response rating, Morningglory ([8]; Preemergence, 125 g ai/ha)	Plant response rating, Morningglory ([8]; Preemergence, 500 g ai/ha)	Plant response rating, Wheat ([9]; Postemergence, 125 g ai/ha)	Plant response rating, Wheat ([9]; Postemergence, 500 g ai/ha)	Plant response rating, Wheat ([9]; Preemergence, 125 g ai/ha)	Plant response rating, Wheat ([9]; Preemergence, 500 g ai/ha)	also measured
Cc1cc(Oc2cccc(C(F)(F)F)n2)nn(-c2ccc(F)cc2)c1=O [Compound 11]	0	0	0	0	10	20	0	10	60	70	0	0	20	30	0	0	0	0	0	0	Plant response rating, Rice ([1]; 250 g ai/ha): 0; Plant response rating, Sedge, Umbrella ([2]; 250 g ai/ha): 0; Plant response rating, Ducksalad ([3]; 250 g ai/ha): 0; Plant response rating, Barnyardgrass ([4]; 250 g ai/ha): 0; Plant response rating, Foxtail, Giant ([10]; Postemergence, 125 g ai/ha): 10; Plant response rating, Foxtail, Giant ([10]; Postemergence, 500 g ai/ha): 20; Plant response rating, Foxtail, Giant ([10]; Preemergence, 125 g ai/ha): 0; Plant response rating, Foxtail, Giant ([10]; Preemergence, 500 g ai/ha): 0; Plant response rating, Velvetleaf ([11]; Postemergence, 125 g ai/ha): 0; Plant response rating, Velvetleaf ([11]; Postemergence, 500 g ai/ha): 0; Plant response rating, Velvetleaf ([11]; Preemergence, 125 g ai/ha): 0; Plant response rating, Velvetleaf ([11]; Preemergence, 500 g ai/ha): 0; Plant response rating, Barnyardgrass ([12]; Postemergence, 125 g ai/ha): 0; Plant response rating, Barnyardgrass ([12]; Postemergence, 500 g ai/ha): 0
Cc1cc(=O)n(-c2ccc(F)cc2)nc1Oc1cccc(C(F)(F)F)n1 [Compound 12]	10	50	0	30	20	70	100	100	60	90	90	100	50	90	0	50	0	20	0	0	Plant response rating, Rice ([1]; 250 g ai/ha): 20; Plant response rating, Sedge, Umbrella ([2]; 250 g ai/ha): 0; Plant response rating, Ducksalad ([3]; 250 g ai/ha): 0; Plant response rating, Barnyardgrass ([4]; 250 g ai/ha): 20; Plant response rating, Foxtail, Giant ([10]; Postemergence, 125 g ai/ha): 20; Plant response rating, Foxtail, Giant ([10]; Postemergence, 500 g ai/ha): 80; Plant response rating, Foxtail, Giant ([10]; Preemergence, 125 g ai/ha): 80; Plant response rating, Foxtail, Giant ([10]; Preemergence, 500 g ai/ha): 100; Plant response rating, Velvetleaf ([11]; Postemergence, 125 g ai/ha): 40; Plant response rating, Velvetleaf ([11]; Postemergence, 500 g ai/ha): 60; Plant response rating, Velvetleaf ([11]; Preemergence, 125 g ai/ha): 30; Plant response rating, Velvetleaf ([11]; Preemergence, 500 g ai/ha): 70; Plant response rating, Barnyardgrass ([12]; Postemergence, 125 g ai/ha): 40; Plant response rating, Barnyardgrass ([12]; Postemergence, 500 g ai/ha): 70
Cc1cc(Oc2ccnc(C(F)(F)F)c2)nn(-c2ccc(F)cc2)c1=O [Compound 13]	20	50	0	10	50	90	100	100	90	100	80	90	50	60	20	80	0	20	0	10	Plant response rating, Rice ([1]; 250 g ai/ha): 0; Plant response rating, Sedge, Umbrella ([2]; 250 g ai/ha): 65; Plant response rating, Ducksalad ([3]; 250 g ai/ha): 30; Plant response rating, Barnyardgrass ([4]; 250 g ai/ha): 0; Plant response rating, Foxtail, Giant ([10]; Postemergence, 125 g ai/ha): 50; Plant response rating, Foxtail, Giant ([10]; Postemergence, 500 g ai/ha): 90; Plant response rating, Foxtail, Giant ([10]; Preemergence, 125 g ai/ha): 80; Plant response rating, Foxtail, Giant ([10]; Preemergence, 500 g ai/ha): 100; Plant response rating, Velvetleaf ([11]; Postemergence, 125 g ai/ha): 60; Plant response rating, Velvetleaf ([11]; Postemergence, 500 g ai/ha): 70; Plant response rating, Velvetleaf ([11]; Preemergence, 125 g ai/ha): 10; Plant response rating, Velvetleaf ([11]; Preemergence, 500 g ai/ha): 50; Plant response rating, Barnyardgrass ([12]; Postemergence, 125 g ai/ha): 10; Plant response rating, Barnyardgrass ([12]; Postemergence, 500 g ai/ha): 60; Plant response rating, Barnyardgrass ([12]; Preemergence, 125 g ai/ha): 0; Plant response rating, Barnyardgrass ([12]; Preemergence, 500 g ai/ha): 60
Cc1cc(=O)n(-c2ccccc2)nc1Oc1ccnc(C(F)(F)F)c1 [Compound 15]	40	80	10	20	80	90	100	100	100	100	100	100	100	100	90	100	20	60	0	20	Plant response rating, Rice ([1]; 250 g ai/ha): 0; Plant response rating, Sedge, Umbrella ([2]; 250 g ai/ha): 70; Plant response rating, Ducksalad ([3]; 250 g ai/ha): 70; Plant response rating, Barnyardgrass ([4]; 250 g ai/ha): 0; Plant response rating, Foxtail, Giant ([10]; Postemergence, 125 g ai/ha): 70; Plant response rating, Foxtail, Giant ([10]; Postemergence, 500 g ai/ha): 90; Plant response rating, Foxtail, Giant ([10]; Preemergence, 125 g ai/ha): 100; Plant response rating, Foxtail, Giant ([10]; Preemergence, 500 g ai/ha): 100; Plant response rating, Velvetleaf ([11]; Postemergence, 125 g ai/ha): 70; Plant response rating, Velvetleaf ([11]; Postemergence, 500 g ai/ha): 90; Plant response rating, Velvetleaf ([11]; Preemergence, 125 g ai/ha): 30; Plant response rating, Velvetleaf ([11]; Preemergence, 500 g ai/ha): 70; Plant response rating, Barnyardgrass ([12]; Postemergence, 125 g ai/ha): 70; Plant response rating, Barnyardgrass ([12]; Postemergence, 500 g ai/ha): 90; Plant response rating, Barnyardgrass ([12]; Preemergence, 125 g ai/ha): 50; Plant response rating, Barnyardgrass ([12]; Preemergence, 500 g ai/ha): 100
CCOc1cc(=O)n(-c2ccc(C(F)(F)F)cc2)nc1Cc1ccnc(C(F)(F)F)c1 [Compound 18]	20	40	10	10	60	80	100	100	90	100	100	100	30	70	30	30	10	20	0	20	Plant response rating, Rice ([1]; 125 g ai/ha): 0; Plant response rating, Sedge, Umbrella ([2]; 125 g ai/ha): 75; Plant response rating, Ducksalad ([3]; 125 g ai/ha): 0; Plant response rating, Barnyardgrass ([4]; 125 g ai/ha): 0; Plant response rating, Foxtail, Giant ([10]; Postemergence, 125 g ai/ha): 20; Plant response rating, Foxtail, Giant ([10]; Postemergence, 500 g ai/ha): 50; Plant response rating, Foxtail, Giant ([10]; Preemergence, 125 g ai/ha): 100; Plant response rating, Foxtail, Giant ([10]; Preemergence, 500 g ai/ha): 100; Plant response rating, Velvetleaf ([11]; Postemergence, 125 g ai/ha): 30; Plant response rating, Velvetleaf ([11]; Postemergence, 500 g ai/ha): 80; Plant response rating, Velvetleaf ([11]; Preemergence, 125 g ai/ha): 40; Plant response rating, Velvetleaf ([11]; Preemergence, 500 g ai/ha): 40; Plant response rating, Barnyardgrass ([12]; Postemergence, 125 g ai/ha): 30; Plant response rating, Barnyardgrass ([12]; Postemergence, 500 g ai/ha): 40; Plant response rating, Barnyardgrass ([12]; Preemergence, 125 g ai/ha): 60; Plant response rating, Barnyardgrass ([12]; Preemergence, 500 g ai/ha): 90
